Results: patent US8946187B2, “Materials and methods related to microRNA-21, mismatch repair, and colorectal cancer” (The Ohio State University, priority 2010, dated 2015)

System: Lovo tumor xenografts
Assay: Colorectal cancer xenograft model, 5-FU treatment
Assay type: in vivo, nude mice
Settings: 5-FU 50 mg/kg/day i.p., 5 days per week for 2 weeks; Lovo(MSH2+) vs Lovo(MSH2−)
Excerpt: Lovo-MSH2 positive and Lovo-MSH2 negative cells were stably infected with the pCDH-CMV-MCS-EF1-miRNA expression plasmid containing the full-length miR-21 and the GFP gene under the control of two different promoters (System Biosciences, Mountain View, Calif.). An empty vector was used as control. Pre-miR-21 expression and control constructs were packaged with pPACKH1 Lentivector Packaging Plasmid mix (System Biosciences) in 293-TN packaging cell line. Viruses were concentrated using PEG-It™ Virus Precipitation Solution and titers analyzed using UltraRapid Lentiviral Titer Kit (System Biosciences). Infected cells were selected by FACS analysis (FACS Calibur, Becton Dickinson Immunocytometry Systems). Infection efficiency >90% was verified by fluorescent microscopy and further confirmed by real time PCR for miR-21 expression.
Animal studies were performed according to institutional guidelines. […] Tumor volume was measured at the beginning of treatment and then once a week. The estimated tumor volume (V) was calculated by the following formula: V=W2×L×0.5, where W represents the […] tumor diameter. The individual relative tumor volume (RTV) was calculated as follows RTV=Vx/V1 where Vx is the volume in cubic millimeters at a given time and V1 is the volume at the start of treatment. […]

O=c1[nH]cc(F)c(=O)[nH]1 [5-FU, 5-fluorouracil]
efficacy of 5-FU treatment on tumor xenografts: more efficacious with Lovo(MSH2+) tumor xenografts compared to Lovo(MSH2−) tumor xenografts
